Experimental findings from patent publication US20240174680A1, “CDK2 INHIBITORS AND METHODS OF USING THE SAME” (Cedilla Therapeutics, Inc., priority 2021, published 2024) are described below.

In this test the target is CDK2/Cyclin E1 (Homo sapiens, UniProt P24941). Description: CDK2/Cyclin E1 Caliper LabChip EZ Reader mobility shift assay. It counts as biochemical. The arrangement: purchased Eurofins 14-475. The conditions noted are these: read-out: Caliper Assay (CDK2/CCNE1): IC50. Put shortly: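 Substrate-to-product conversion of fluorescent peptide (1.5 μM final) read by capillary electrophoresis after 100 min reaction, EDTA-quenched. Enzyme (2.5 nM final) and ATP (100 μM final) were preincubated 30 min with inhibitor dilutions first. % activity vs concentration fitted four-parameter for IC50.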
`COC[C@H]1CCCN(C(=O)CNC(=O)[C@@H]2CN(C(=O)c3cncs3)CC23CN(C(=O)[C@H]2CC2(C)C)C3)C1` [I-323]: the IC50 is 1000 to 10000 nM.

With `C[C@@H](OCC1CCC(F)(F)CC1)[C@H](NC(=O)[C@@H]1CN(C(=O)c2cncs2)CC12CN(C(=O)[C@H]1CC1(C)C)C2)C(=O)N1CCC2(CC1)CC2` [I-380], the IC50 is at most 10 nM.

On to `C[C@@H](OCC1CCCCC1)[C@H](NC(=O)C1CN(C(=O)c2cnn(Cc3ccccc3)c2)CC12CN(C(=O)[C@H]1CC1(C)C)C2)C(=O)N1CCOCC1` (stereo partly drawn) [I-152 mixture], for which the IC50 was at most 10 nM.

As for `CNC(=O)[C@@H](NC(=O)[C@@H]1CN(C(=O)c2scnc2C2CC2)CC12CN(C(=O)[C@H]1CC1(C)C)C2)[C@@H](C)OCC1CCCCC1` [I-185A], the IC50 was over 10000 nM.

For `C[C@@H](OCC1CCCCC1)[C@H](NC(=O)C1CN(C(=O)C2CCC(=O)NC2)CC12CN(C(=O)[C@H]1CC1(C)C)C2)C(=O)N1CCCCC1` (stereo partly drawn) [I-265], the IC50 was in the range of 1000 to 10000 nM.

In the case of `CCCC(=O)N1CC2(C1)CN(C(=O)c1cnn(Cc3ccccc3)c1)C[C@@H]2C(=O)N[C@H](C(=O)NC)[C@@H](C)OCc1ccccc1` [I-60B], the IC50 was over 10000 nM.

For `CNC(=O)[C@@H](NC(=O)[C@@H]1CN(C(=O)c2cncs2)CC12CN(C(=O)[C@H]1CC1(C)C)C2)[C@@H](C)OCc1ccccc1` [I-24A, (S)—N-((2S,3R)-3-(benzyloxy)-1-(methylamino)-1-oxobutan-2-yl)-2-((S)-2,2-dimethylcyclopropane-1-carbonyl)-6-(thiazole-5-carbonyl)-2,6-diazaspiro[3.4]octane-8-carboxamide], the IC50 is 100 to 1000 nM.

On to `C[C@@H](OCC1CCCCC1)[C@@H](COC(F)(F)F)NC(=O)[C@@H]1CN(C(=O)c2cnn(Cc3ccccc3)c2)CC12CN(C(=O)[C@H]1CC1(C)C)C2` [I-309], for which the IC50 lay within 10 to 100 nM.

Take `C[C@@H](OCC1(C(F)(F)F)CC1)[C@H](NC(=O)[C@H]1CN(C(=O)c2cncs2)CC12CN(C(=O)[C@H]1CC1(C)C)C2)C(=O)N1CCCCC1` [I-292]: the IC50 lay in the range of 10 to 100 nM.

On to `CNC(=O)[C@@H](NC(=O)[C@@H]1CN(Cc2cnn(C)c2)CC12CN(C(=O)[C@H]1CC1(C)C)C2)[C@@H](C)OCc1ccccc1` [I-47A], for which the IC50 is over 10000 nM.

As for `CC1(C)C[C@@H]1C(=O)N1CC2(CN(C(=O)c3cnn(Cc4ccccc4)c3)C[C@H]2C(=O)N[C@@H]2CCN(c3ccccc3)C2)C1` [I-207], the IC50 was in the range of 1000 to 10000 nM.

As for `C[C@@H](OCc1ccccc1)C(NC(=O)C1CN(C(=O)c2cnn(Cc3ccccc3)c2)CC12CN(C(=O)[C@H]1CC1(C)C)C2)C(=O)NCCOCCOCCO` (stereo partly drawn) [I-21], the IC50 was in the range of 10 to 100 nM.

For the compound `C[C@@H](OCc1ccccc1)[C@H](NC(=O)C1CN(C(=O)c2cnn(Cc3ccccc3)c2)CC12CN(C(=O)[C@H]1CC1(C)C)C2)C(=O)N1CCOCC1` (stereo partly drawn) [I-86], the IC50 was 10 to 100 nM.

As for `CNC(=O)[C@@H](NC(=O)[C@H]1CN(C(=O)c2cnc(CC3CC3)s2)CC12CN(C(=O)[C@H]1CC1(C)C)C2)[C@@H](C)OCC1CCCCC1` [I-177B], the IC50 was in the range of 1000 to 10000 nM.

In the case of `CNC(=O)[C@@H](NC(=O)[C@@H]1CN(C(=O)c2cnn(CC3CCOCC3)c2)CC12CN(C(=O)[C@H]1CC1(C)C)C2)[C@@H](C)OCC1CCCCC1` [I-121A], the IC50 fell in the range of 10 to 100 nM.

Regarding `Cc1ccc(CNC(=O)[C@@H]2CN(C(=O)c3cnn(Cc4ccccc4)c3)CC23CN(C(=O)[C@H]2CC2(C)C)C3)nc1` [I-365], the IC50 lay within 1000 to 10000 nM.

In the case of `CNC(=O)[C@@H](NC(=O)[C@H]1CN(C(=O)c2cn[nH]c2)CC12CN(C(=O)CC1CC1)C2)[C@@H](C)OCc1ccccc1` [I-41B], the IC50 is over 10000 nM.

As for `CNC(=O)[C@@H](NC(=O)[C@H]1CN(C(=O)c2cnn(Cc3ccccc3)c2)CC12CN(C(=O)CC1CC1)C2)[C@@H](C)OCC1CCCCC1` [I-56B], the IC50 was in the range of 1000 to 10000 nM.

For `C[C@@H](OCC1CCCCC1)[C@@H](COC1CCCNC1)NC(=O)[C@@H]1CN(C(=O)c2cncs2)CC12CN(C(=O)[C@H]1CC1(C)C)C2` (stereo partly drawn) [I-332], the IC50 was at most 10 nM.

For `CNC(=O)[C@@H](NC(=O)[C@H]1CN(C(=O)c2cnc(COC(C)(C)C)s2)CC12CN(C(=O)[C@H]1CC1(C)C)C2)[C@@H](C)OCC1CCCCC1` [I-175B], the IC50 was 100 to 1000 nM.

As to `CC1(C)C[C@@H]1C(=O)N1CC2(CN(C(=O)c3cnn(Cc4ccccc4)c3)C[C@H]2C(=O)NC[C@H]2CC[C@H](C)CC2)C1` [I-382], the IC50 was in the range of 1000 to 10000 nM.

Turning to `CNC(=O)[C@@H](NC(=O)[C@@H]1CN(C(=O)c2cncs2)CC12CN(C(=O)[C@H]1CC1(C)C)C2)[C@@H](C)OCC1CCCCC1` [I-129A], the IC50 was 10 to 100 nM.

As to `CNC(=O)[C@@H](NC(=O)[C@@H]1CN(C(=O)c2cncs2)CC12CN(C(=O)CC1CC1)C2)[C@@H](C)OCC1CCCCC1` [I-103A], the IC50 was 100 to 1000 nM.

On to `CNC(=O)C(NC(=O)[C@@H]1CN(C(=O)c2cncs2)CC12CN(C(=O)[C@H]1CC1(C)C)C2)c1cccc(N2CC3(COC3)C2)n1` (stereo partly drawn) [I-427], for which the IC50 is 1000 to 10000 nM.

Take `CNC(=O)[C@@H](NC(=O)[C@H]1CN(C(=O)c2sc(Cl)nc2C)CC12CN(C(=O)[C@H]1CC1(C)C)C2)[C@@H](C)OCC1CCCCC1` [I-208B]: the IC50 lay in the range of 100 to 1000 nM.

Take `CNC(=O)[C@@H](NC(=O)[C@@H]1CN(C(=O)c2cnn(Cc3ccccc3)c2)CC12CN(C(=O)C1(C(F)(F)F)CC1)C2)[C@@H](C)OCc1ccccc1` [I-108A]: the IC50 fell in the range of 100 to 1000 nM.

Take `C[C@@H](OCC1CCC(F)(F)CC1)[C@H](NC(=O)[C@@H]1CN(C(=O)c2cn[nH]c2)CC12CN(C(=O)C1(C(F)(F)F)CC1)C2)C(=O)N1CCOCC1` [I-302]: the IC50 lay within 10 to 100 nM.

Regarding `C[C@@H](OCC1CCCCC1)[C@H](NC(=O)C1CN(C(=O)c2cnn(Cc3ccccc3)c2)CC12CN(C(=O)[C@H]1CC1(C)C)C2)C(=O)N1CCCCC1` (stereo partly drawn) [I-194 mixture], the IC50 was at most 10 nM.

As to `C[C@@H](OCC1CCC(F)(F)CC1)[C@H](NC(=O)[C@H]1CN(C(=O)c2cn[nH]c2)CC12CN(C(=O)[C@H]1CC1(C)C)C2)C(=O)N1CCC(F)(F)CC1` [I-228B], the IC50 lay within 100 to 1000 nM.

With `CNC(=O)[C@@H](NC(=O)[C@@H]1CN(Cc2cncs2)CC12CN(C(=O)[C@H]1CC1(C)C)C2)[C@@H](C)OCc1ccccc1` [I-51A], the IC50 was over 10000 nM.

For `COC[C@H]1CCCN(C(=O)[C@H](C)NC(=O)[C@@H]2CN(C(=O)c3cncs3)CC23CN(C(=O)[C@H]2CC2(C)C)C3)C1` [I-325], the IC50 lay within 1000 to 10000 nM.

Take `COC(=O)[C@@H](CO)NC(=O)[C@@H]1CN(C(=O)c2cnn(Cc3ccccc3)c2)CC12CN(C(=O)[C@H]1CC1(C)C)C2` [I-187A]: the IC50 is over 10000 nM.

For `C[C@@H](OCc1ccc(Cl)cc1)[C@@H](CO)NC(=O)[C@@H]1CN(C(=O)c2cncs2)CC12CN(C(=O)[C@H]1CC1(C)C)C2` [I-404], the IC50 is 10 to 100 nM.

As for `CNC(=O)[C@H](COCc1ccccc1)NC(=O)[C@@H]1CN(C(=O)c2cnn(Cc3ccccc3)c2)CC12CN(C(=O)C(C)(C)C)C2` [I-100A], the IC50 fell in the range of 1000 to 10000 nM.

Take `CC1(C)C[C@@H]1C(=O)N1CC2(CN(C(=O)c3cnn(Cc4ccccc4)c3)C[C@H]2C(=O)N[C@H]2C[C@@H]2c2cccc(Cl)c2)C1` [I-140A]: the IC50 lay within 100 to 1000 nM.

Regarding `CC1(C)C[C@@H]1C(=O)N1CC2(CN(C(=O)c3cnn(Cc4ccccc4)c3)C[C@H]2C(=O)N[C@H]2CCCN(C(=O)C3CCCCC3)C2)C1` [I-182], the IC50 lay in the range of 1000 to 10000 nM.

As to `C[C@@H](OCC1CCC(F)(F)CC1)[C@H](NC(=O)[C@@H]1CN(C(=O)c2cn[nH]c2)CC12CN(C(=O)[C@H]1CC1(C)C)C2)C(=O)N1CCC(F)(F)CC1` [I-228A], the IC50 was at most 10 nM.

With `CNC(=O)[C@@H](NC(=O)[C@H]1CN(C(=O)c2cnn(Cc3ccccc3)c2)CC12CN(C(=O)C1(CC3CC3)CC1)C2)[C@@H](C)OCc1ccccc1` [I-116B], the IC50 was over 10000 nM.

As to `C[C@@H](OCC1CCCCC1)[C@H](NC(=O)[C@@H]1CN(C(=O)c2cnn(Cc3ccccc3)c2)CC12CN(C(=O)[C@H]1CC1(C)C)C2)C(=O)N1CC(CN)C1` [I-239], the IC50 was at most 10 nM.

As to `C[C@@H](OCC1CCCCC1)[C@H](NC(=O)[C@@H]1CN(C(=O)c2cnn(Cc3ccccc3)c2)CC12CN(C(=O)[C@H]1CC1(C)C)C2)C(=O)N1CC2(CNC2)C1` [I-240], the IC50 is at most 10 nM.

For `CNC(=O)[C@@H](NC(=O)[C@@H]1CN(C(=O)c2cnn(Cc3ccccc3)c2)CC12CN(C(=O)[C@H]1CC1(C)C)C2)C(C)(C)SCc1ccccc1` [I-171A, (S)-6-(1-benzyl-1H-pyrazole-4-carbonyl)-N—((R)-3-(benzylthio)-3-methyl-1-(methylamino)-1-oxobutan-2-yl)-2-((S)-2,2-dimethylcyclopropane-1-carbonyl)-2,6-diazaspiro[3.4]octane-8-carboxamide], the IC50 was in the range of 100 to 1000 nM.

Consider `C[C@@H](OCc1ccccc1)[C@H](NC(=O)C1CN(C(=O)c2cnn(Cc3ccccc3)c2)CC12CN(C(=O)[C@H]1CC1(C)C)C2)C(=O)N1CC2(CCC2)C1` (stereo partly drawn) [I-106], for which the IC50 was 10 to 100 nM.

Consider `CNC(=O)[C@@H](NC(=O)[C@@H]1CN(C(=O)c2cnn(Cc3ccccc3)c2)CC12CN(C(=O)CC1(CO)CC1)C2)[C@@H](C)OCc1ccccc1` [I-92A], for which the IC50 is over 10000 nM.

Consider `CNC(=O)[C@@H](NC(=O)[C@H]1CN(C(=O)c2cnco2)CC12CN(C(=O)[C@H]1CC1(C)C)C2)[C@@H](C)OCc1ccccc1` [I-39B], for which the IC50 is over 10000 nM.

In the case of `C[C@@H](OCC1CCC(F)(F)CC1)[C@H](NC(=O)[C@@H]1CN(C(=O)c2cnn(Cc3ccc(F)cc3)c2)CC12CN(C(=O)[C@H]1CC1(C)C)C2)C(=O)N1CCC(F)(F)CC1` [I-164A], the IC50 was at most 10 nM.

Consider `CNC(=O)[C@@H](NC(=O)[C@@H]1CN(C(=O)c2cnn(Cc3ccccc3)c2)CC12CN(C(=O)[C@H]1CC1(C)C)C2)[C@@H](C)OCc1ccc(Br)cc1` [I-263], for which the IC50 is at most 10 nM.

For `CC1(C)C[C@@H]1C(=O)N1CC2(CN(C(=O)c3cncs3)C[C@H]2C(=O)NCc2cccc(C3CCCCC3)n2)C1` [I-414], the IC50 is 10 to 100 nM.

`CNC(=O)[C@@H](NC(=O)[C@@H]1CN(C(=O)c2cccnc2)CC12CN(C(=O)[C@H]1CC1(C)C)C2)[C@@H](C)OCc1ccccc1` [I-42A]: the IC50 lay in the range of 1000 to 10000 nM.
